Reference: patent US6060608A, “Analogs of CC-1065 and the duocarmycins” (The Scripps Research Institute, priority 1999, dated 2000)
Where two headings read alike, the source gives them in different places.

Test: Aqueous solvolysis reactivity followed by UV
Type: physicochemical
Details: for half-life: read-out: solvolysis half-life t1/2 (converted)
Procedure: The reactivity of 217-219 was assessed by following the solvolysis spectrophotometrically by UV at both pH 3 (50% CH3 OH-buffer, buffer=4:1:20 (v/v/v) 0.1 M citric acid, 0.2 M Na2 HPO4, H2 O) and pH 7 (1:1 H2 O--CH3 OH) measuring both the disappearance of the long-wavelength absorption band of the F2 CBI chromophore and the appearance of a short-wavelength absorption band attributable to the ring open products (FIG. 31).
Aqueous Solvolysis Reactivity. pH 3: N-BOC-CCBI (25, 100 μg) was dissolved in CH3 OH (1.5 mL) and mixed with pH 3 aqueous buffer (1.5 mL). The buffer contained 4:1:20 (v:v:v) 0.1 M citric acid, 0.2 M Na2 HPO4 and H2 O, respectively. The solvolysis solution was sealed and kept at 25° C. protected from light. The UV spectrum was measured at regular intervals every 2 h during the first day, every 12 h for another week, and every 24 h for an additional week. The decrease in the long-wavelength absorption at 322 nm and the increase in the short-wavelength absorption at 268 nm were monitored, FIG. 1.
pH 2: Samples of 25 (100 μg) and 26 (50 μg) were dissolved in CH3 OH (1.5 mL) and the solutions were mixed with aqueous buffer (pH 2.05, 1.5 mL). The buffer contained 4:1:20 (v:v:v) 1.0 M citric acid, 0.2 M Na2 HPO4, and H2 O, respectively. Immediately after mixing, the UV spectra of the solutions were measured against a reference solution containing CH3 OH (1.5 mL) and the aqueous buffer (1.5 mL) and these readings were used for the initial absorbance values. The solutions were stoppered, protected from the light, and allowed to stand at 25° C. UV spectra were recorded at regular intervals until constant values were obtained for the long and short wavelength absorbances. The solvolysis rate constants were determined from the slope of the lines obtained from linear least squares treatment of plots of ln[(Af -Ai)/(Af -A)] versus time using the short wavelength measurements for 25 and long wavelength measurements for 26).

[1] = pH 2 (buffer pH 2.05), CH3OH-buffer 1:1, 25° C.

Q: Which results are given for `CC(C)(C)OC(=O)N1CC2CC23C1=CC(=O)c1ccc(C#N)cc13` (stereo not shown) [compound 25, N-(tert-Butyloxycarbonyl)-7-cyano-1,2,9,9a-tetrahydrocyclopropa[c]benz[e]indol-4-one]?
A: first order solvolysis rate constant [1]: 7.94e-06 s⁻¹; half-life [1]: 24.2 h; solvolysis rate constant k (pH 3, 50% CH3OH-buffer): 9.9e-07 s⁻¹; half-life (pH 3, 50% CH3OH-buffer): 213 h
